Assay results as given in publication PMC4138103 (PLoS ONE, 2014).
“And” between values parts separate entries of the source, which are not always exact repeats. Identical values can stand only once.

System: Sprague-Dawley rats
Test: Retinoid analyses in liver, serum and kidney
Format: in vivo, Rattus norvegicus
Design: key to Dose response, Liver Retinol: D: significant dose response (for results see Table 2 in the text); T: significant trend; key to Kidney Retinyl esters, Dose response / Liver All-trans RA, Dose response / Kidney All-trans RA, Dose response / Serum Retinol, Dose response: D: significant dose response (for results, see Table 2); T: significant trend
Procedure: Retinoids in liver, serum, and kidney were analyzed according to Schmidt et al.. The polar retinoids 9-cis-retinoic acid (9-cis-RA), 13-cis-retinoic acid (13-cis-RA), 13-cis-4-oxo-retinoic acid (13-cis-4-o-RA), 9-cis-4-oxo-13,14-dihydro-retinoic acid (9-cis-4-o-13,14-dh-RA), all-trans retinoic acid (all-trans RA) and the apolar retinoids retinol and retinyl palmitate were extracted by a single liquid-extraction, separated from each other via solid-phase extraction using an aminopropyl phase, and then injected onto two different HPLC systems that were coupled with UV detection. […] The limits of detection (LOD) for all-trans RA and 9c-4o-13,14-dh-RA were 0.7 and 1.0 pmol/g tissue, and 0.3 and 0.6 pmol/ml serum, respectively. Retinol and retinyl palmitate were separated on a J'sphere ODS-H80 (4.6×150 mm, 4 µm particle size) obtained from YMC (Schermbeck, Germany), and were detected at 325 nm. The LOD for retinol and retinyl palmitate were 5.6 and 5.5 pmol/g tissue, and 4.2 and 4.2 pmol/ml serum, respectively.
Data were also analyzed using the BMD method, which is based on dose-response modeling of the full data set using a nested family of exponential and Hill models. The analyses were done on data of males and females combined, using sex as a covariate. […] In that case, different Critical Effect Doses (CEDs) and CEDs at the lowest bound of the confidence interval (CED-L) were generated for each sex. If no difference between sexes is detected, a CED and CED-Ls for the combined data is generated. However, this was also done if the curve fits are close, and separate analyses for males and females were then performed manually. CEDs and CED-Ls were calculated at the predefined Critical Effect Size (CES) of 5% (EFSA standard) or 10%.

[1] = females, CES 5%, total dose based
[2] = females, CES 10%, total dose based
[3] = females, adipose tissue concentration based
[4] = males, total dose 0-1700 mg/kg bw
[5] = males, total dose 3 mg/kg bw, group mean, N=5
[6] = males, total dose 10 mg/kg bw, group mean, N=5
[7] = males, total dose 30 mg/kg bw, group mean, N=5
[8] = males, total dose 100 mg/kg bw, group mean, N=5
[9] = males, total dose 300 mg/kg bw, Liver
[10] = males, total dose 300 mg/kg bw, group mean, N=5
[11] = males, total dose 1000 mg/kg bw, group mean, N=5
[12] = males, total dose 1700 mg/kg bw, group mean, N=5
[13] = males, CES 5%, total dose based
[14] = males, CES 10%, total dose based
[15] = males, adipose tissue concentration based
[16] = males, controls vs high dose, fitted model
[17] = males, total dose 30 mg/kg bw, n=1

## Clc1cc(Cl)c(-c2cc(Cl)c(Cl)c(Cl)c2Cl)cc1Cl [PCB 180, 2,2′,3′,4,4′,5,5′-heptachlorobiphenyl]
[1]
  Kidney all-trans RA amount, CED-L: 319 mg/kg bw
  Kidney all-trans RA concentration, CED: 457 mg/kg bw
  Kidney all-trans RA concentration, CED-L: 321 mg/kg bw
  Kidney retinol amount, CED: 355 mg/kg bw
  Kidney retinol amount, CED-L: 221 mg/kg bw
  Kidney retinol concentration, CED: 335 mg/kg bw
  Kidney retinol concentration, CED-L: 216 mg/kg bw
  Liver 9c-4o-13,14-dh-RA amount, CED: 13.1 mg/kg bw
  Liver 9c-4o-13,14-dh-RA amount, CED-L: 8.29 mg/kg bw
  Liver 9c-4o-13,14-dh-RA conc., CED: 12 mg/kg bw and 12.2 mg/kg bw
  Liver 9c-4o-13,14-dh-RA conc., CED-L: 8.77 mg/kg bw
  Liver retinol concentration, CED: 156 mg/kg bw
  Liver retinol concentration, CED-L: 119 mg/kg bw
  Liver retinyl esters amount, CED: 254 mg/kg bw
  Liver retinyl esters amount, CED-L: 189 mg/kg bw
  Liver retinyl esters concentration, CED: 122 mg/kg bw
  Liver retinyl esters concentration, CED-L: 104 mg/kg bw
  Serum retinol concentration, CED: 400 mg/kg bw
  Serum retinol concentration, CED-L: 242 mg/kg bw
[2]
  Kidney all-trans RA amount, CED: 965 mg/kg bw
  Kidney all-trans RA amount, CED-L: 625 mg/kg bw
  Kidney all-trans RA concentration, CED: 892 mg/kg bw
  Kidney all-trans RA concentration, CED-L: 626 mg/kg bw
  Kidney retinol amount, CED: 694 mg/kg bw
  Kidney retinol amount, CED-L: 431 mg/kg bw
  Kidney retinol concentration, CED: 655 mg/kg bw
  Kidney retinol concentration, CED-L: 421 mg/kg bw
  Liver 9c-4o-13,14-dh-RA amount, CED: 27.2 mg/kg bw
  Liver 9c-4o-13,14-dh-RA amount, CED-L: 17.2 mg/kg bw
  Liver 9c-4o-13,14-dh-RA conc., CED: 25.3 mg/kg bw
  Liver 9c-4o-13,14-dh-RA conc., CED-L: 18.2 mg/kg bw
  Liver retinol concentration, CED: 374 mg/kg bw
  Liver retinol concentration, CED-L: 263 mg/kg bw
  Liver retinyl esters amount, CED: 522 mg/kg bw
  Liver retinyl esters amount, CED-L: 388 mg/kg bw
  Liver retinyl esters concentration, CED: 252 mg/kg bw
  Liver retinyl esters concentration, CED-L: 214 mg/kg bw
  Serum retinol concentration, CED: 781 mg/kg bw
  Serum retinol concentration, CED-L: 474 mg/kg bw
[3]
  Kidney all-trans RA concentration, CED: 2930 µg/g lipid
  Kidney retinol concentration, CED: 2060 µg/g lipid
  Liver 9c-4o-13,14-dh-RA concentration, CED: 55.5 µg/g lipid and 56 µg/g lipid
  Liver retinol concentration, CED: 1000 µg/g lipid
  Liver retinyl ester concentration, CED: 793 µg/g lipid
  Serum retinol concentration, CED: 2470 µg/g lipid
females, controls vs high dose, fitted model
  Serum retinol concentration, Maximum response: 23.1%
males
  Liver retinol concentration, max. decrease: 47%
  Liver retinyl ester concentration, max. decrease: 63%
[4]
  Dose response, Kidney Retinol: D, T
  Dose response, Kidney Retinyl esters: D, T
  Dose response, Liver All-trans RA: D, T
  Dose response, Liver Retinol: D
  Dose response, Liver Retinyl esters: D, T
  Kidney Retinol, Dose response: D, T
  Kidney Retinyl esters, Dose response: D
  Liver All-trans RA, Dose response: D
  Liver Retinol, Dose response: D, T
  Liver Retinyl esters, Dose response: D, T
[5]
  Kidney All-trans RA: 35.9 pmol
  Kidney Retinol: 14.2 nmol
  Kidney Retinyl esters: 4.99 nmol
  Liver 9-cis-4o-13,14-dh RA: 218 pmol
  Liver All-trans RA: 544 pmol
  Liver Retinol: 0.28 µmol
  Liver Retinyl esters: 11.5 µmol
[6]
  Kidney All-trans RA: 36.9 pmol
  Kidney Retinol: 17.6 nmol
  Kidney Retinyl esters: 8.73 nmol
  Liver All-trans RA: 632 pmol
  Liver Retinol: 0.32 µmol
  Liver Retinyl esters: 12.5 µmol
males, total dose 30 mg/kg bw
  Kidney All-trans RA: 31.8 pmol/g
  Kidney Retinol: 16.9 nmol/g
  Kidney Retinyl esters: 7.83 nmol/g
  Liver All-trans RA: 44.5 pmol/g
  Liver Retinol: 20.5 nmol/g
  Liver Retinyl esters: 0.77 µmol/g
  Serum Retinyl esters: 46.5 pmol/mL
males, total dose 30 mg/kg bw, Liver
  Liver Retinyl esters: 46.5 pmol/mL
males, total dose 30 mg/kg bw, Liver, n=4
  Liver Retinol: 1.65 pmol/mL
[7]
  Kidney All-trans RA: 33.3 pmol
  Kidney Retinol: 17.5 nmol
  Kidney Retinyl esters: 8.12 nmol
  Liver All-trans RA: 623 pmol
  Liver Retinol: 0.29 µmol
  Liver Retinyl esters: 10.7 µmol
males, total dose 30 mg/kg bw, n=4
  Serum Retinol: 1.65 pmol/mL
males, total dose 100 mg/kg bw
  Kidney All-trans RA: 34.8 pmol/g
  Kidney Retinol: 16.3 nmol/g
  Kidney Retinyl esters: 8.27 nmol/g
  Liver All-trans RA: 44.4 pmol/g
  Liver Retinol: 15.7 nmol/g
  Liver Retinyl esters: 0.62 µmol/g
  Serum Retinyl esters: 84.5 pmol/mL
males, total dose 100 mg/kg bw, Liver
  Liver Retinyl esters: 84.5 pmol/mL
males, total dose 100 mg/kg bw, Liver, n=4
  Liver Retinol: 1.75 pmol/mL
[8]
  Kidney All-trans RA: 37.0 pmol
  Kidney Retinol: 17.3 nmol
  Kidney Retinyl esters: 8.84 nmol
  Liver All-trans RA: 744 pmol
  Liver Retinol: 0.26 µmol
  Liver Retinyl esters: 10.3 µmol
males, total dose 100 mg/kg bw, n=3
  Liver 9-cis-4o-13,14-dh-RA: 22.7 pmol/g
males, total dose 100 mg/kg bw, n=4
  Serum Retinol: 1.75 pmol/mL
males, total dose 300 mg/kg bw
  Kidney All-trans RA: 35.9 pmol/g
  Kidney Retinol: 17.5 nmol/g
  Kidney Retinyl esters: 13.9 nmol/g
  Liver All-trans RA: 48.1 pmol/g
  Liver Retinol: 17.4 nmol/g
  Liver Retinyl esters: 0.56 µmol/g
  Serum Retinol: 1.64 pmol/mL
  Serum Retinyl esters: 67.8 pmol/mL
[9]
  Liver Retinol: 1.64 pmol/mL
  Liver Retinyl esters: 67.8 pmol/mL
[10]
  Kidney All-trans RA: 37.8 pmol
  Kidney Retinol: 18.2 nmol
  Kidney Retinyl esters: 14.5 nmol
  Liver All-trans RA: 863 pmol
  Liver Retinol: 0.31 µmol
  Liver Retinyl esters: 10.1 µmol
males, total dose 300 mg/kg bw, n=4
  Liver 9-cis-4o-13,14-dh-RA: 20.9 pmol/g
[11]
  Kidney All-trans RA: 35.9 pmol
  Kidney Retinol: 24.5 nmol
  Kidney Retinyl esters: 24.5 nmol
  Liver 9-cis-4o-13,14-dh RA: 455 pmol
  Liver All-trans RA: 1077 pmol
  Liver Retinol: 0.27 µmol
  Liver Retinyl esters: 8.2 µmol
[12]
  Kidney All-trans RA: 32.4 pmol
  Kidney Retinol: 23.3 nmol
  Kidney Retinyl esters: 25.2 nmol
  Liver All-trans RA: 1178 pmol
  Liver Retinol: 0.23 µmol
  Liver Retinyl esters: 6.4 µmol
[13]
  Kidney retinol amount, CED: 206 mg/kg bw
  Kidney retinol amount, CED-L: 147 mg/kg bw
  Kidney retinol concentration, CED: 200 mg/kg bw
  Kidney retinol concentration, CED-L: 149 mg/kg bw
  Kidney retinyl esters amount, CED: 9.14 mg/kg bw
  Kidney retinyl esters amount, CED-L: 3.10 mg/kg bw
  Kidney retinyl esters concentration, CED: 9.9 mg/kg bw and 9.88 mg/kg bw
  Kidney retinyl esters concentration, CED-L: 3.35 mg/kg bw
  Liver all-trans RA amount, CED: 21.7 mg/kg bw
  Liver all-trans RA amount, CED-L: 9.07 mg/kg bw
  Liver all-trans RA concentration, CED: 450 mg/kg bw
  Liver all-trans RA concentration, CED-L: 268 mg/kg bw
  Liver retinol amount, CED: 437 mg/kg bw
  Liver retinol amount, CED-L: 261 mg/kg bw
  Liver retinol concentration, CED: 32 mg/kg bw and 31.9 mg/kg bw
  Liver retinol concentration, CED-L: 6.10 mg/kg bw
  Liver retinyl esters amount, CED: 145 mg/kg bw
  Liver retinyl esters amount, CED-L: 123 mg/kg bw
  Liver retinyl esters concentration, CED: 22 mg/kg bw and 21.5 mg/kg bw
  Liver retinyl esters concentration, CED-L: 12.9 mg/kg bw
[14]
  Kidney retinol amount, CED: 402 mg/kg bw
  Kidney retinol amount, CED-L: 288 mg/kg bw
  Kidney retinol concentration, CED: 390 mg/kg bw
  Kidney retinol concentration, CED-L: 291 mg/kg bw
  Kidney retinyl esters amount, CED: 18.5 mg/kg bw
  Kidney retinyl esters amount, CED-L: 6.26 mg/kg bw
  Kidney retinyl esters concentration, CED: 20 mg/kg bw
  Kidney retinyl esters concentration, CED-L: 6.77 mg/kg bw
  Liver all-trans RA amount, CED: 44.7 mg/kg bw
  Liver all-trans RA amount, CED-L: 18.7 mg/kg bw
  Liver all-trans RA concentration, CED: 879 mg/kg bw
  Liver all-trans RA concentration, CED-L: 523 mg/kg bw
  Liver retinol amount, CED: 897 mg/kg bw
  Liver retinol amount, CED-L: 536 mg/kg bw
  Liver retinol concentration, CED: 56 mg/kg bw
  Liver retinol concentration, CED-L: 10.4 mg/kg bw
  Liver retinyl esters amount, CED: 296 mg/kg bw
  Liver retinyl esters amount, CED-L: 252 mg/kg bw
  Liver retinyl esters concentration, CED: 43.9 mg/kg bw
  Liver retinyl esters concentration, CED-L: 26.6 mg/kg bw
[15]
  Kidney retinol concentration, CED: 863 µg/g lipid
  Kidney retinyl ester concentration, CED: 42 µg/g lipid
  Liver all-trans RA concentration, CED: 1920 µg/g lipid
  Liver retinol concentration, CED: 31 µg/g lipid
  Liver retinol, CED-L: 18800 ng/g lipid
  Liver retinyl ester concentration, CED: 108 µg/g lipid
[16]
  Kidney retinol concentration, Maximum response: 51.5%
  Liver all-trans RA concentration, Maximum response: 20% and 20.3%
males, total dose 10 mg/kg bw, group mean, n=3
  Liver 9-cis-4o-13,14-dh RA: 163 pmol
[17]
  Liver 9-cis-4o-13,14-dh RA: 389b pmol
  Liver 9-cis-4o-13,14-dh-RA: 30.8 pmol·days/g
males, total dose 100 mg/kg bw, group mean, n=3
  Liver 9-cis-4o-13,14-dh RA: 434 pmol
males, total dose 300 mg/kg bw, group mean, n=4
  Liver 9-cis-4o-13,14-dh RA: 403 pmol
males, total dose 1700 mg/kg bw, group mean, n=4, one exceptionally high value excluded as an outlier
  Liver 9-cis-4o-13,14-dh RA: 454 pmol
